Assay results: patent US20230295119A1, “SUBSTITUTED PYRIDINES FOR THE TREATMENT OF INFLAMMATORY DISEASES” (GOSSAMER BIO SERVICES, INC., priority 2020, published 2023)

Tests used:
[1] = target: TYK2 JH2 domain (Homo sapiens (Human), UniProt P29597); assay: TYK2 JH2 NanoBRET assay; assay type: binding; conditions: Table 20, read-out: TYK2 IC50
Outline: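 Tracer displacement measured by BRET ratio (acceptor over donor) in live HEK293T cells transfected with a NanoLuc-tagged TYK2 JH2 construct; cells co-exposed to test compound and 0.5 µM final K10 tracer for 2 h before substrate/extracellular inhibitor addition.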

[2] = target: human JAK3 (Homo sapiens (Human), UniProt P52333); assay: JAK3 TR-FRET kinase assay; assay type: biochemical; conditions: JAK3 0.0125 nM
[3] = target: human JAK1 (Homo sapiens (Human), UniProt P23458); assay: JAK1 TR-FRET kinase assay; assay type: biochemical; conditions: TR-FRET, JAK1 2.5 nM
[4] = target: human JAK2 (Homo sapiens (Human), UniProt O60674); assay: JAK2 TR-FRET kinase assay; assay type: biochemical; conditions: JAK2 0.025 nM
Sequence of human JAK2 (O60674 whole entry): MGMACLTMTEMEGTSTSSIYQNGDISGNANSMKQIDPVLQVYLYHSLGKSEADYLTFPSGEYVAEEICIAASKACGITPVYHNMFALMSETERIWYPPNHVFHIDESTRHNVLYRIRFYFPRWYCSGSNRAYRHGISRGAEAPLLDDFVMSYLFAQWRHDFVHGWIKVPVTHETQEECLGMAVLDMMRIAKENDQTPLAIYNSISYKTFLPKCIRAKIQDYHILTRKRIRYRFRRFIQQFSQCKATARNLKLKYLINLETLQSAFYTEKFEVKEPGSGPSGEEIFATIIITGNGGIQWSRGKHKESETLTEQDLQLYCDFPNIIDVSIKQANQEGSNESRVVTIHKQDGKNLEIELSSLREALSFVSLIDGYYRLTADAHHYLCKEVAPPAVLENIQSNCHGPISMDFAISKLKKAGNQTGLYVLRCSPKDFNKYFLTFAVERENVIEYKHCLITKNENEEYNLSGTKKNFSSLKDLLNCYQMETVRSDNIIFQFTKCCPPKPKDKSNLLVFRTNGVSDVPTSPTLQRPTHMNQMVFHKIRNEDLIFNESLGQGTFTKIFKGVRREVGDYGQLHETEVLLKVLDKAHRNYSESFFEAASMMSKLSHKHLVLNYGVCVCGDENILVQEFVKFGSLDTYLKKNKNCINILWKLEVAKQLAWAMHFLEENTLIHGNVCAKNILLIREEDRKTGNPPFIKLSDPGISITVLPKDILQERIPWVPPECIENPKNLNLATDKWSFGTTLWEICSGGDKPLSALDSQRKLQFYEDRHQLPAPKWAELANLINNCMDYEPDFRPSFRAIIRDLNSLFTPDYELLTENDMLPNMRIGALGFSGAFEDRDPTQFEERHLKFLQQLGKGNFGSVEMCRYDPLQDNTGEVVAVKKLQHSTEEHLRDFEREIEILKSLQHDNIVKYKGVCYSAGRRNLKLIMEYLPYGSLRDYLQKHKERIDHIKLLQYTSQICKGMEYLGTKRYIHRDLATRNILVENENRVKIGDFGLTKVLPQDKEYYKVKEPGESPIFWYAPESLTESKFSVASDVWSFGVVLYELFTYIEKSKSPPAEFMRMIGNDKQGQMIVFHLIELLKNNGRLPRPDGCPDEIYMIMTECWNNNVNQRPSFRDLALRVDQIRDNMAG

Sequence of human JAK3 (P52333 whole entry): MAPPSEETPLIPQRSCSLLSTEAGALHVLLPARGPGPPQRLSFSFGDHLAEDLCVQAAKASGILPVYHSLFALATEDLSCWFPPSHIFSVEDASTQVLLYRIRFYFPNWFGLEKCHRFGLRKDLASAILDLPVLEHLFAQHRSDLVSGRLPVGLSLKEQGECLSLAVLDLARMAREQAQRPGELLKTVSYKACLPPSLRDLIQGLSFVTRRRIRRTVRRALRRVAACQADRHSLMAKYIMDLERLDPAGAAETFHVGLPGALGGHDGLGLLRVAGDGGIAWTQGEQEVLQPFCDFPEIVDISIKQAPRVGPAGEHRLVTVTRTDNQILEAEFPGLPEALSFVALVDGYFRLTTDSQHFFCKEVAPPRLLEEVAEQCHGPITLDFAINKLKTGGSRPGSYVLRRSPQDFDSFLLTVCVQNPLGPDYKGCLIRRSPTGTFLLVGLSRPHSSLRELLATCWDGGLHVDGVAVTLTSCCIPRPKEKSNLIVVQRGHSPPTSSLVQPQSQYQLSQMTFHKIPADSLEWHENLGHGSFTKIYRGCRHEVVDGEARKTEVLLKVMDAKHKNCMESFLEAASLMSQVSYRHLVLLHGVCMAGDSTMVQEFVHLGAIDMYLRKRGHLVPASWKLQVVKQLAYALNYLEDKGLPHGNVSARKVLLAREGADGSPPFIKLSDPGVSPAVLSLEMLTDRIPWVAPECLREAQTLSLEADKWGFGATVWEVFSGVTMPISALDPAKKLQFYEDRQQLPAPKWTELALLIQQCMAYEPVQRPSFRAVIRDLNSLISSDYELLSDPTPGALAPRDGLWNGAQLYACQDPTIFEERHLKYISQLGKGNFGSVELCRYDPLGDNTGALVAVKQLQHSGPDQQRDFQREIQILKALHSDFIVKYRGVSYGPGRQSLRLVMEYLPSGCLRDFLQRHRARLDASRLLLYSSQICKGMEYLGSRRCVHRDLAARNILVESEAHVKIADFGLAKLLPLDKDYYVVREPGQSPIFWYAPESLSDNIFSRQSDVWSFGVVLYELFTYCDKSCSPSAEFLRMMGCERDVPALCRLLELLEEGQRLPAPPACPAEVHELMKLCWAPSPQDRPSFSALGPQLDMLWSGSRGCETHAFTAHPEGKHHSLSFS
Sequence of TYK2 JH2 domain (P29597 589-875): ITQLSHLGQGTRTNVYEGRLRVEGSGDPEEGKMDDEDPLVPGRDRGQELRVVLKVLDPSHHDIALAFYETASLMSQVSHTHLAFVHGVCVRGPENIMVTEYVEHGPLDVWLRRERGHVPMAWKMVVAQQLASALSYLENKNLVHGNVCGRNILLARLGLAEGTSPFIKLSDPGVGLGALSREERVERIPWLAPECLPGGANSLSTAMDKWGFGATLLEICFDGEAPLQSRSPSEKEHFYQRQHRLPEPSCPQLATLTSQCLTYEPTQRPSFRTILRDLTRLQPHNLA
Sequence of human JAK1 (P23458 whole entry): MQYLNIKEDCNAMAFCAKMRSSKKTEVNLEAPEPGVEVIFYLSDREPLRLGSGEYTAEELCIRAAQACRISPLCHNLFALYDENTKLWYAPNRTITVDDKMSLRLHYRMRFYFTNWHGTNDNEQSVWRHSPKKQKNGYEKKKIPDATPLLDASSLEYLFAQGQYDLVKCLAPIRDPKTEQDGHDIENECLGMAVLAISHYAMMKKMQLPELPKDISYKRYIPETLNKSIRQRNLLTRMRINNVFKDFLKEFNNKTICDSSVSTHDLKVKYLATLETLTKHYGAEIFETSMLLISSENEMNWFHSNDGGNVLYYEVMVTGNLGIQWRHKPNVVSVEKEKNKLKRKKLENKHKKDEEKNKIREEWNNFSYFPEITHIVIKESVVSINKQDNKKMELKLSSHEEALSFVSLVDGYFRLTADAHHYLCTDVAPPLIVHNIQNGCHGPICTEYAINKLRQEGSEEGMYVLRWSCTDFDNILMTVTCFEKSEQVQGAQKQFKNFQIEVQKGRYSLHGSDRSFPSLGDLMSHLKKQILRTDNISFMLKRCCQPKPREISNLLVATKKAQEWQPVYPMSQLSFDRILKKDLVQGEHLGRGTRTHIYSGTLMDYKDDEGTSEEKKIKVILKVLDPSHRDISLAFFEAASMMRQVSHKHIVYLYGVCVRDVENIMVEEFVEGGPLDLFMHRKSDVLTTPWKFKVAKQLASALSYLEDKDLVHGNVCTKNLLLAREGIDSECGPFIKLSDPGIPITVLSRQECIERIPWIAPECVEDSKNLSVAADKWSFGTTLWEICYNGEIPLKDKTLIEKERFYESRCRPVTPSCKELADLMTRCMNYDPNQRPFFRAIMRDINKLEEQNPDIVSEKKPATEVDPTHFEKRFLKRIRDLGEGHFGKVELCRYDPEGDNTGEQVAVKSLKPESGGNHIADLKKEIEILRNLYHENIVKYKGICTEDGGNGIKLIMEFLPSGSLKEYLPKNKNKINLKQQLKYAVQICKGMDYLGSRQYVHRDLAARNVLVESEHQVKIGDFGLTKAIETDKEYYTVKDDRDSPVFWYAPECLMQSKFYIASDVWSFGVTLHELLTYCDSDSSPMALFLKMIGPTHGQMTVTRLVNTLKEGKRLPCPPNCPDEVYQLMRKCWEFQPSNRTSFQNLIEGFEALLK

IC50 [1] [nM]	IC50 [2] [nM]	IC50 [3] [nM]	IC50 [4] [nM]	SMILES
< 5	≥ 500	≥ 500	≥ 500	CCC(=O)c1cnc(Nc2ccc(OC3CCN(C)CC3)nn2)cc1Nc1cccc(-c2ncn(C)n2)c1OC [Compound 18EE]
< 5	≥ 500	≥ 500	≥ 500	CCC(=O)c1cnc(Nc2cc(CCN(C)C)ncn2)cc1Nc1cccc(-c2ncn(C)n2)c1OC [Compound 11F]
< 5	≥ 500	≥ 500	≥ 500	COc1c(Nc2cc(Nc3ccc(-n4ccnc4)cn3)ncc2C(=O)C2CC2)cccc1-c1ncn(C)n1 [Compound 15Q]
< 5	≥ 500	≥ 500	≥ 500	CCC(=O)c1cnc(Nc2ccc(C3(NC)CC3)cn2)cc1Nc1cccc(-c2ncn(C)n2)c1OC [Compound 9P]
< 5	50 to 500	≥ 500	50 to 500	CCC(=O)c1cnc(Nc2ccc(OCC3COC3)cn2)cc1Nc1cccc(-c2ncn(C)n2)c1OC [Compound 18AA]
5 to 50	≥ 500	≥ 500	≥ 500	CCC(=O)c1cnc(Nc2ccn(CCN3CCCC3)n2)cc1Nc1cccc(-c2ncn(C)n2)c1OC [Compound 21C]
5 to 50	≥ 500	≥ 500	≥ 500	CCC(=O)c1cnc(Nc2ccc(S(C)(=O)=O)cn2)cc1Nc1cccc(C(C)O)c1OC (centres unmarked) [Compound 13Q]
< 5	≥ 500	≥ 500	≥ 500	CCC(=O)c1cnc(Nc2cnc(CN)cn2)cc1Nc1cccc(-c2ncn(C)n2)c1OC [Compound 9QQQ]
< 5	≥ 500	≥ 500	≥ 500	CCC(=O)c1cnc(Nc2ccc(CN3CC[C@@H](F)C3)cn2)cc1Nc1cccc(-c2ncn(C)n2)c1OC [Compound 9JJ]
< 5	≥ 500	≥ 500	≥ 500	CCC(=O)c1cnc(Nc2ccc(CN3CCCC3)cn2)cc1Nc1cccc(-c2ncn(C)n2)c1OC [Compound 9II]
5 to 50	≥ 500	≥ 500	≥ 500	COc1c(Nc2cc(Nc3ccc(OC[C@H](O)CO)cn3)ncc2C(=O)C2CC2)cccc1-c1ncn(C)n1 [Compound 18J]
5 to 50	≥ 500	≥ 500	≥ 500	CCC(=O)c1cnc(Nc2cnc(OCCN3CCC(F)(F)C3)cn2)cc1Nc1cccc(-c2ncn(C)n2)c1OC [Compound 18ZZ]
5 to 50	50 to 500	≥ 500	50 to 500	CCC(=O)c1cnc(Nc2cc(OC)n(CCOC)n2)cc1Nc1cccc(-c2ncn(C)n2)c1OC [Compound 21Y]
5 to 50	≥ 500	≥ 500	≥ 500	CCC(=O)c1cnc(Nc2ccc(OC[C@H](O)CO)cn2)cc1Nc1cccc(-c2ncn(C)n2)c1OC [Compound 18G]
50 to 500	≥ 500	≥ 500	≥ 500	CCC(=O)c1cnc(Nc2ccc(CN)nn2)cc1Nc1cccc(-c2ncn(C)n2)c1OC [Compound 9FFF]
< 5	50 to 500	≥ 500	50 to 500	CCC(=O)c1cnc(Nc2ccc(S(=O)(=O)C3CC3)cn2)cc1Nc1cccc(-c2ncn(C)n2)c1OC [Compound 13H]

IC50 [1] [nM]	IC50 [2] [nM]	IC50 [3] [nM]	IC50 [4] [nM]	SMILES
< 5	≥ 500	≥ 500	≥ 500	CCC(=O)c1cnc(Nc2ccc(S(N)(=O)=O)cn2)cc1Nc1cccc(-c2ncn(C)n2)c1OC [Compound 13B]
< 5	≥ 500	≥ 500	≥ 500	CCC(=O)c1cnc(Nc2ccc([C@@H](C)N(C)C)cn2)cc1Nc1cccc(-c2ncn(C)n2)c1OC [Compound 9J]
50 to 500	≥ 500	≥ 500	≥ 500	CCC(=O)c1cnc(Nc2ccn(CC3CN(C)C3)n2)cc1Nc1cccc(-c2ncn(C)n2)c1OC [Compound 21X]
5 to 50	≥ 500	≥ 500	≥ 500	CCO[C@H]1C[C@@H](n2ccc(Nc3cc(Nc4cccc(-c5ncn(C)n5)c4OC)c(C(=O)CC)cn3)n2)C1 [Compound 21CC]
5 to 50	≥ 500	≥ 500	≥ 500	CCC(=O)c1cnc(Nc2ccc(CN(C)C)nn2)cc1Nc1cccc(-c2ncn(C)n2)c1OC [Compound 9HHH]
5 to 50	50 to 500	≥ 500	50 to 500	CCC(=O)c1cnc(Nc2ccc(CN3CCS(=N)(=O)CC3)cn2)cc1Nc1cccc(-c2ncn(C)n2)c1OC [Compound 9WW]
< 5	≥ 500	≥ 500	≥ 500	CCC(=O)c1cnc(Nc2ccc(CN)cn2)cc1Nc1cccc(-c2ncn(C)n2)c1OC [Compound 9B]
50 to 500	≥ 500	≥ 500	≥ 500	CCC(=O)c1cnc(Nc2nc(CN3CCCC3)ns2)cc1Nc1cccc(-c2ncn(C)n2)c1OC [Compound 21H]
< 5	50 to 500	≥ 500	50 to 500	CCC(=O)c1cnc(Nc2ccc(C(N)=O)cn2)cc1Nc1cccc(-c2ncn(C)n2)c1OC [Compound 8A, 6-((4-((2-methoxy-3-(1-methyl-1H-1,2,4-triazol-3-yl)phenyl)amino)-5-propionylpyridin-2-yl)amino)nicotinamide]
≥ 500	≥ 500	≥ 500	≥ 500	CCC(=O)c1cnc(NC(=O)[C@@H]2C[C@@H]2NC(C)=O)cc1Nc1cccc(-c2ncn(C)n2)c1OC [Compound 22K]
5 to 50	≥ 500	≥ 500	≥ 500	CCC(=O)c1cnc(Nc2cnc(CS(C)(=O)=O)cn2)cc1Nc1cccc(-c2ncn(C)n2)c1OC [Compound 13U]
< 5	≥ 500	≥ 500	≥ 500	CCC(=O)c1cnc(Nc2ccc(S(=O)(=O)CC)cn2)cc1Nc1nccc(-c2ncn(C)n2)c1OC [Compound 13J]
5 to 50	≥ 500	≥ 500	≥ 500	CCC(=O)c1cnc(Nc2ccn(C3CC(F)(F)C3)n2)cc1Nc1cccc(-c2ncn(C)n2)c1OC [Compound 21GG]
5 to 50	≥ 500	≥ 500	≥ 500	COc1c(-c2ncn(C)n2)ccnc1Nc1cc(Nc2ccc(-c3cn(C)cn3)cn2)ncc1C(=O)C1CC1 [Compound 15L]
< 5	≥ 500	≥ 500	≥ 500	CCC(=O)c1cnc(Nc2ccc(C(C)N(C)C)nn2)cc1Nc1cccc(-c2ncn(C)n2)c1OC (centres unmarked) [Compound 9KKK]

SMILES	IC50 [1] [nM]	IC50 [2] [nM]	IC50 [3] [nM]	IC50 [4] [nM]
CCC(=O)c1cnc(NC(=O)C2CC2)cc1Nc1cc(F)cc(-c2ncn(C)n2)c1OC [Compound 25A, N-(4-((5-fluoro-2-methoxy-3-(1-methyl-1H-1,2,4-triazol-3-yl)phenyl)amino)-5-propionylpyridin-2-yl)cyclopropanecarboxamide]	5 to 50	≥ 500	≥ 500	≥ 500
